The experiment has as its target T1, human DLK (Homo sapiens, UniProt Q12852).
T1 sequence (Q12852 1-859): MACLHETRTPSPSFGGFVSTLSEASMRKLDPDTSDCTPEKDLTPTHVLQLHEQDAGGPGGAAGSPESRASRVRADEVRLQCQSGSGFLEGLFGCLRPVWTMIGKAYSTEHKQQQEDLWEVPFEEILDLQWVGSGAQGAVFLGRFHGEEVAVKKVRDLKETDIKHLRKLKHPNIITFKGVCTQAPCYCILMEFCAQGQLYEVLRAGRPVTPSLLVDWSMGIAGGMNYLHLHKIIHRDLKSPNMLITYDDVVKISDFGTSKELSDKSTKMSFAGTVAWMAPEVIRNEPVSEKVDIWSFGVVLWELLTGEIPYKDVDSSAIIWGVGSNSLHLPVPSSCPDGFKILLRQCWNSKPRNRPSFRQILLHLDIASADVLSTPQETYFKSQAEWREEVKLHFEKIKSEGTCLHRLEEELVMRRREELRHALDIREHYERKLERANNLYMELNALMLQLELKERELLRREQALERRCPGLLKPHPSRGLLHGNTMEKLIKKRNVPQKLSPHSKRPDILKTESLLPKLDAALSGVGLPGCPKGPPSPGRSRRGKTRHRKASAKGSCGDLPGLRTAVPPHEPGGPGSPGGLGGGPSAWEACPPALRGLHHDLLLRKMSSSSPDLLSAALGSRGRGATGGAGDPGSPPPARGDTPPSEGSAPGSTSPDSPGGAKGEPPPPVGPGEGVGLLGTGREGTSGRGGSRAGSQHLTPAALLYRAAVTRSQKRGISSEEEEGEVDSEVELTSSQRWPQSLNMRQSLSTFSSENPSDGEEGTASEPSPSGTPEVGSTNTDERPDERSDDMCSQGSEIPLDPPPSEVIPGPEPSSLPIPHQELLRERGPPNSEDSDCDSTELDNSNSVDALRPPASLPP
Description: DLK Kd Determinations (KINOMEscan KdELECT, DiscoveRx). Also noted: full length of human DLK (amino acids 1-859); host or cells: transiently transfected HEK293 cells; unpurified extract. The conditions noted are these: fusion protein of full length human DLK (amino acids 1-859) and NFkB DNA binding domain; qPCR readout; duplicate. The method, boiled down: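 Competition binding of full-length human DLK (aa 1-859)-NFkB DBD fusion, DNA-tagged, from HEK293 extracts against an immobilized ligand; 1 h at room temperature, 0.9% DMSO. Bead-bound kinase was quantified by qPCR. Kd came from an 11-point 3-fold series (top 30,000 nM), in duplicate, with Hill slope fixed at −1.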
(Real-time PCR tracks product formation cycle by cycle.)

As usually defined, the Kd is the concentration at which binding is half-saturated. Turning to `Nc1ncc(-c2cn([C@H]3[C@@H]4CNC[C@@H]43)c(C3CC3)n2)cc1OC(F)F` [Example 96, 5-(1-((1R,5S,6s)-3-azabicyclo[3.1.0]hexan-6-yl)-2-cyclopropyl-1H-imidazol-4-yl)-3-(difluoromethoxy)pyridin-2-amine], the dissociation constant Kd amounted to 53 nM.
`Nc1ncc(-c2cn([C@H]3[C@@H]4CN(CC(F)F)C[C@@H]43)c(CC3CC3)n2)cc1OC(F)(F)F` [Example 98, 5-(2-(cyclopropylmethyl)-1-((1R,5S,6s)-3-(2,2-difluoroethyl)-3-azabicyclo[3.1.0]hexan-6-yl)-1H-imidazol-4-yl)-3-(trifluoromethoxy)pyridin-2-amine] showed a dissociation constant (Kd) of 93 nM. Compared with the last compound, the Kd is about 1.8-fold higher.
The figure for `Nc1ncc(-c2cn([C@H]3[C@@H]4CN(CC(F)(F)F)C[C@@H]43)c(CC3CC3)n2)cc1OC(F)(F)F` [Example 99, 5-(2-(cyclopropylmethyl)-1-((1R,5S,6s)-3-(2,2,2-trifluoroethyl)-3-azabicyclo[3.1.0]hexan-6-yl)-1H-imidazol-4-yl)-3-(trifluoromethoxy)pyridin-2-amine] is 340 nM; for `COCCN1C[C@@H]2[C@H](C1)[C@H]2n1cc(-c2cnc(N)c(OC(F)(F)F)c2)nc1CC1CC1` [Example 100, 5-(2-(cyclopropylmethyl)-1-((1R,5S,6s)-3-(2-methoxyethyl)-3-azabicyclo[3.1.0]hexan-6-yl)-1H-imidazol-4-yl)-3-(trifluoromethoxy)pyridin-2-amine] it is 66 nM; for `Nc1ncc(-c2cn([C@H]3[C@@H]4CN(CCF)C[C@@H]43)c(CC3CC3)n2)cc1OC(F)(F)F` [Example 101, 5-(2-(cyclopropylmethyl)-1-((1R,5S,6s)-3-(2-fluoroethyl)-3-azabicyclo[3.1.0]hexan-6-yl)-1H-imidazol-4-yl)-3-(trifluoromethoxy)pyridin-2-amine] it is 81 nM.
Turning to `Nc1ncc(-c2cn([C@H]3[C@@H]4CN(CC(F)(F)F)C[C@@H]43)c(CC3CC3)n2)cc1OC(F)F` [Example 102, 5-(2-(cyclopropylmethyl)-1-((1R,5S,6s)-3-(2,2,2-trifluoroethyl)-3-azabicyclo[3.1.0]hexan-6-yl)-1H-imidazol-4-yl)-3-(difluoromethoxy)pyridin-2-amine], the Kd was determined as 280 nM.
Consider `Nc1ncc(-c2cn([C@H]3[C@@H]4CN(CC(F)F)C[C@@H]43)c(C3CC3)n2)cc1OC(F)F` [Example 103, 5-(2-cyclopropyl-1-((1R,5S,6s)-3-(2,2-difluoroethyl)-3-azabicyclo[3.1.0]hexan-6-yl)-1H-imidazol-4-yl)-3-(difluoromethoxy)pyridin-2-amine], for which the Kd was 92 nM. This Kd is about 3-fold lower than that of the compound before.
`Nc1ncc(-c2cn([C@H]3[C@@H]4CN(C5COC5)C[C@@H]43)c(C3CC3)n2)cc1OC(F)F` [Example 104, 5-(2-cyclopropyl-1-((1R,5S,6s)-3-(oxetan-3-yl)-3-azabicyclo[3.1.0]hexan-6-yl)-1H-imidazol-4-yl)-3-(difluoromethoxy)pyridin-2-amine] returned a Kd of 66 nM.
In turn, `Nc1ncc(-c2cn([C@H]3[C@@H]4CN(CCF)C[C@@H]43)c(C3CC3)n2)cc1OC(F)F` [Example 106, 5-(2-cyclopropyl-1-((1R,5S,6s)-3-(2-fluoroethyl)-3-azabicyclo[3.1.0]hexan-6-yl)-1H-imidazol-4-yl)-3-(difluoromethoxy)pyridin-2-amine] returned an equilibrium dissociation constant (Kd) of 55 nM.
For the compound `COCCN1C[C@@H]2[C@H](C1)[C@H]2n1cc(-c2cnc(N)c(OC(F)F)c2)nc1C1CC1` [Example 107, 5-(2-cyclopropyl-1-((1R,5S,6s)-3-(2-methoxyethyl)-3-azabicyclo[3.1.0]hexan-6-yl)-1H-imidazol-4-yl)-3-(difluoromethoxy)pyridin-2-amine], the dissociation constant (Kd) was found to be 74 nM.
Turning to `Nc1ncc(-c2cn([C@H]3[C@@H]4CN(CC(F)(F)F)C[C@@H]43)c(C3CC3)n2)cc1OC(F)F` [Example 108, 5-(2-cyclopropyl-1-((1R,5S,6s)-3-(2,2,2-trifluoroethyl)-3-azabicyclo[3.1.0]hexan-6-yl)-1H-imidazol-4-yl)-3-(difluoromethoxy)pyridin-2-amine], the Kd turned out to be 140 nM.
On to `CC(C)c1nc(-c2cnc(N)c(OC(F)(F)F)c2)cn1[C@H]1[C@@H]2CN(CC(F)F)C[C@@H]21` [Example 109, 5-(1-((1R,5S,6s)-3-(2,2-difluoroethyl)-3-azabicyclo[3.1.0]hexan-6-yl)-2-isopropyl-1H-imidazol-4-yl)-3-(trifluoromethoxy)pyridin-2-amine], for which binding was put at a Kd of 66 nM. Compared with the last compound, the Kd is about 2.1-fold lower.
The figure for `CC(C)c1nc(-c2cnc(N)c(OC(F)(F)F)c2)cn1[C@H]1[C@@H]2CN(CC(F)(F)F)C[C@@H]21` [Example 110, 5-(2-isopropyl-1-((1R,5S,6s)-3-(2,2,2-trifluoroethyl)-3-azabicyclo[3.1.0]hexan-6-yl)-1H-imidazol-4-yl)-3-(trifluoromethoxy)pyridin-2-amine] is 280 nM.
`CC(C)c1nc(-c2cnc(N)c(OC(F)(F)F)c2)cn1[C@H]1[C@@H]2CN(CCF)C[C@@H]21` [Example 111, 5-(1-((1R,5S,6s)-3-(2-fluoroethyl)-3-azabicyclo[3.1.0]hexan-6-yl)-2-isopropyl-1H-imidazol-4-yl)-3-(trifluoromethoxy)pyridin-2-amine] came in with a dissociation constant Kd of 100 nM.
For the compound `CC(C)c1nc(-c2cnc(N)c(OC(F)F)c2)cn1[C@H]1[C@@H]2CN(CC(F)F)C[C@@H]21` [Example 112, 5-(1-((1R,5S,6s)-3-(2,2-difluoroethyl)-3-azabicyclo[3.1.0]hexan-6-yl)-2-isopropyl-1H-imidazol-4-yl)-3-(difluoromethoxy)pyridin-2-amine], the equilibrium dissociation constant (Kd) is 160 nM.
`COCCN1C[C@@H]2[C@H](C1)[C@H]2n1cc(-c2cnc(N)c(OC(F)F)c2)nc1C(C)C` [Example 113, 3-(difluoromethoxy)-5-(2-isopropyl-1-((1R,5S,6s)-3-(2-methoxyethyl)-3-azabicyclo[3.1.0]hexan-6-yl)-1H-imidazol-4-yl)pyridin-2-amine] had a Kd of 95 nM.
In the case of `CC(=O)N1C[C@@H]2[C@H](C1)[C@H]2n1cc(-c2cnc(N)c(C(F)(F)F)c2)nc1CC1CC1` [Example 114, 1-((1R,5S,6s)-6-(4-(6-amino-5-(trifluoromethyl)pyridin-3-yl)-2-(cyclopropylmethyl)-1H-imidazol-1-yl)-3-azabicyclo[3.1.0]hexan-3-yl)ethan-1-one], the Kd is 66 nM.
`CC(=O)N1C[C@@H]2[C@H](C1)[C@H]2n1cc(-c2cnc(N)c(OC(F)F)c2)nc1CC1CC1` [Example 115, 1-((1R,5S,6s)-6-(4-(6-amino-5-(difluoromethoxy)pyridin-3-yl)-2-(cyclopropylmethyl)-1H-imidazol-1-yl)-3-azabicyclo[3.1.0]hexan-3-yl)ethan-1-one] showed a Kd of 200 nM. Compared with the last compound, the Kd is about 3-fold higher.
Regarding `CC(=O)N1C[C@@H]2[C@H](C1)[C@H]2n1cc(-c2cnc(N)c(OC(F)F)c2)nc1C1CC1` [Example 118, 1-((1R,5S,6s)-6-(4-(6-amino-5-(difluoromethoxy)pyridin-3-yl)-2-cyclopropyl-1H-imidazol-1-yl)-3-azabicyclo[3.1.0]hexan-3-yl)ethan-1-one], the Kd came to 62 nM.
For the compound `Nc1ncc(-c2cn([C@H]3[C@@H]4CNC[C@@H]43)c(CC(F)(F)F)n2)cc1C(F)(F)F` [Example 120, 5-(1-((1R,5S,6s)-3-azabicyclo[3.1.0]hexan-6-yl)-2-(2,2,2-trifluoroethyl)-1H-imidazol-4-yl)-3-(trifluoromethyl)pyridin-2-amine], the dissociation constant Kd was 40 nM.
`Nc1ncc(-c2cn([C@H]3[C@@H]4CN(CC(F)F)C[C@@H]43)c(CC(F)(F)F)n2)cc1C(F)(F)F` [Example 122, 5-(1-((1R,5S,6s)-3-(2,2-difluoroethyl)-3-azabicyclo[3.1.0]hexan-6-yl)-2-(2,2,2-trifluoroethyl)-1H-imidazol-4-yl)-3-(trifluoromethyl)pyridin-2-amine] yielded a Kd of 120 nM.
Turning to `Nc1ncc(-c2cn([C@H]3[C@@H]4CN(CCF)C[C@@H]43)c(CC(F)(F)F)n2)cc1C(F)(F)F` [Example 123, 5-(1-((1R,5S,6s)-3-(2-fluoroethyl)-3-azabicyclo[3.1.0]hexan-6-yl)-2-(2,2,2-trifluoroethyl)-1H-imidazol-4-yl)-3-(trifluoromethyl)pyridin-2-amine], binding was put at a Kd of 65 nM.
The figure for `Nc1ncc(-c2cn([C@H]3[C@@H]4CN(CC(F)(F)F)C[C@@H]43)c(CC(F)(F)F)n2)cc1C(F)(F)F` [Example 124, 5-(2-(2,2,2-trifluoroethyl)-1-((1R,5S,6s)-3-(2,2,2-trifluoroethyl)-3-azabicyclo[3.1.0]hexan-6-yl)-1H-imidazol-4-yl)-3-(trifluoromethyl)pyridin-2-amine] is 240 nM.

Values taken from US20180057507A1, “INHIBITORS OF DUAL LEUCINE ZIPPER (DLK) KINASE FOR THE TREATMENT OF DISEASE” (Board of Regents, The University of Texas System, priority 2016, published 2018).
